Values after ≈ are worked out from the molar mass of the structure shown.
Key:
K. pneumoniae BAA 2472 = test: microbe, parasite or virus in culture; format: cell-based
Procedure: (§1) The compounds synthesized, shown in Table 1, were evaluated against Gram-positive and Gram-negative reference strains (S. aureus 29213 and E. coli MG1655, respectively), as well as an efflux deficient E. coli strain (ΔtolC, JW5503).
(§2) Bacterial strains. S. aureus ATCC 29213, E. coli MG1655, E. coli BAA-2340, E. coli BAA-2469, E. coli BAA-2471, E. cloacae BAA-2341, E. cloacae BAA-2468, K. pneumoniae BAA-1705, K. pneumoniae BAA-2342, K. pneumoniae BAA-2470, K. pneumoniae BAA-2472, and K. pneumoniae BAA-2473 were obtained from ATCC. E. coli JW5503 and E. coli JW3596 were obtained from the KEIO Collection. E. cloacae ATCC 29893 was provided by W. van der Donk (UIUC). E. coli AR-0346, E. coli AR-0349, E. coli AR-0493, E. coli AR-0495, and K. pneumoniae AR-0347 were obtained from the CDC and FDA AR Isolate Bank. E. coli F20987, E. coli M66623, E. cloacae S28901.1, K. pneumoniae M14723, K. pneumoniae M67198, K. pneumoniae M67297, K. pneumoniae S20595, K. pneumoniae S47889, A. baumannii W41979, A. baumannii F19521, A. baumannii M13100, and A. baumannii WO22 were obtained from the University of Illinois Chicago Medical School. A. baumannii KB304, A. baumannii KB343, and A. baumannii KB357 were provided by J. Quale.
(§3) Antimicrobial susceptibility tests. Susceptibility testing was performed in biological triplicate, using the micro-dilution broth method as outlined by the Clinical and Laboratory Standards Institute. Bacteria were cultured with cation-adjusted Muller-Hinton broth (Sigma-Aldrich, Cat# 90922) in round-bottom 96-well plates (Corning, Cat# 3788). Human serum (pooled gender, 0.2 μm filtered) was purchased from BioIVT (Hicksville, NY).

E. coli ΔtolC (JW5503) = format: cell-based; conditions: efflux deficient E. coli ΔtolC
Procedure: as §1, §2, §3

E. coli MG1655 = test: Antimicrobial susceptibility test (MIC); format: cell-based
From the text: as §2, §3

S. aureus ATCC 29213 = test: Antimicrobial susceptibility test (MIC), micro-dilution broth; format: cell-based; conditions: S. aureus ATCC 29213
From the text: as §2, §3

IMR90 = test: Toxicity screen against mammalian cell lines (72 h), Alamar Blue; format: cell-based
Procedure: Cell culture. IMR90 cells were obtained from ATCC. IMR90 cells were grown in EMEM with 10% fetal bovine serum (Gemini Benchmark, Cat# 100-106), 100 U/mL penicillin, and 100 μg/mL streptomycin. All cells were cultured at 37° C. in a 5% CO2 environment. Media was prepared by the Univeristy of Illinois School of Chemical Sciences Cell Media Facility. Sex and age of cell lines: IMR90 ([…]).
Cell viability. Cells seeded (IMR90: 5,000 cells/well) a 96-well plate (Greiner Bio-One, Cat# 655180) and were allowed to attach overnight. […] Raptinal (100 μM) was used as a dead control. After 24 h post-treatment, media was exchanged with compound-free media. […] Stock Alamar Blue solution [10 μL, 440 μM resazurin (Sigma-Aldrich, Cat# R7017) in sterile 1×PBS] was added to each well, and plate was incubated […]. Conversion of Alamar Blue was measured with plate reader (SpectraMax M3, Molecular Devices) by fluorescence (ex 555 nm, em 585 nm, cutoff 570 nm, autogain). Percent death was determined by normalizing to DMSO-treated cells and raptinal-treated cells.

Hep G2 = test: Toxicity screen against mammalian cell lines (72 h); format: cell-based
K. pneumoniae AR 0066 = test: microbe, parasite or virus in culture; format: cell-based
Procedure: as §3

E. coli AR 0048 = test: microbe, parasite or virus in culture; format: cell-based
Procedure: as §3

A. baumannii AR 0273 = test: microbe, parasite or virus in culture; format: cell-based
Procedure: as §3

A. baumannii AR 0033 = test: microbe, parasite or virus in culture; format: cell-based
Procedure: as §3

E. coli AR 0085 = test: microbe, parasite or virus in culture; format: cell-based
Procedure: as §3

K. pneumoniae AR 0113 = test: microbe, parasite or virus in culture; format: cell-based
Procedure: as §3

A. baumannii AR 0313 = test: microbe, parasite or virus in culture; format: cell-based
Procedure: as §3

K. pneumoniae AR 0560 = test: microbe, parasite or virus in culture; format: cell-based
Procedure: as §3

A. baumannii AR 0299 = test: microbe, parasite or virus in culture; format: cell-based
Procedure: as §3

[1] = Maximal tolerated dose (MTD) in mice
Procedure: Mouse MTD of Debio-1452-NH3. The protocol was approved by the IACUC at the University of Illinois at Urbana-Champaign (Protocol Number:16144). In these studies, 10- to 12-week-old female C57BL/6 mice purchased from Charles River were used. The maximum tolerate dose (MTD) of single compound was determined first. Debio-1452 amine analogues were formulated in 20% sulfobutyl ether β-cyclodextrin in sterile water. Debio-1452-NH3 (1), and compounds 2 and 3 were given by IP injection and mice were monitored for signs of toxicity for 2 weeks (single dose). For multiple dose, the compound was given by daily IP for 5 consecutive days and mice were monitored for signs of toxicity for 1 month. MTD was the highest dosage with acceptable toxicity (e.g. <20% weight loss). Single dose MTDs were initially determined. […] The MTD of Debio-1452-NH3 (1) was used to inform the dosing schedule used in subsequent efficacy studies.

[2] = tested on: two E. coli, four K. pneumoneia, and four A. baumannii strains; test: MIC against Gram-negative clinical isolate challenge panel (ten isolates); format: cell-based
Procedure: as §1, §3

HERG = HERG (Homo sapiens (Human), UniProt Q12809); test: cell-based
H. sapiens A549 = test: In-vitro cytotoxicity; format: cell-based
A. baumannii FabI = A. baumannii FabI (Acinetobacter baumannii, UniProt D0CAD5); test: biochemical
Procedure: (§4) Mode of Action. To probe the effects of varying ring systems and amine placement on FabI target engagement, the apparent inhibition constants (Ki^app) for select compounds were determined using purified FabI. The goal of these studies was two-fold, to comparatively assess fabimycin, Debio-1452-NH3, and Debio-1452, and to also assess differential activity against the E. coli and A. baumannii versions of FabI. FabI from E. coli and A. baumannii were recombinantly expressed and purified, and the ability for each compound to inhibit the activity of these enzymes was evaluated using a standard FabI enzyme assay.
In vitro FabI inhibition assay. NADH (Sigma-Aldrich, Cat# N8129) and crotonoyl-CoA (Sigma-Aldrich, Cat# 28007) were both diluted into activity buffer [100 mM potassium glutamate (pH 7.8)], and working solution was dispensed into two columns of round-bottom 96-well plate (330 μL per well). Inhibitors, dissolved in DMSO at 200× final concentration, were added to each well via multichannel pipette (2.48 μL per well). After thorough mixing, this mixture was transferred to UV-transparent plate (UV-STAR half-area 96-well plate, Greiner Bio-One, Cat#675801, 100 μL per well, three technical replicates per inhibitor concentration). Plate was placed in plate-reader (SpectraMax 190, Molecular Devices) under temperature control (25° C.), and temperature was allowed to equilibrate. Fresh aliquot of enzyme from −80° C. was thawed on ice and diluted in activity buffer. Enzyme working solution was added to plate (50 μL per well, 20 nM enzyme final). After shaking for 5 s, reaction progress was monitored by absorbance at 340 nm every 15 s for 90 min. Linear portion of reaction progress curve was fit using plate-reader software (SoftMax Pro 7.0). Percent activity was calculated relative to DMSO-only and no-enzyme controls in each plate. Percent activity curves were fit to Morrison's quadratic using Graphpad Prism 6.0 to obtain apparent Ki.

Plasma protein binding [3] = conditions: human, plasma
E. coli FabI = E. coli FabI (Escherichia coli (strain K12), UniProt P0AEK4); test: In vitro FabI inhibition assay; format: biochemical
Procedure: as §4
In vitro FabI inhibition assay. NADH (Sigma-Aldrich, Cat# N8129) and crotonoyl-CoA (Sigma-Aldrich, Cat# 28007) were both diluted into activity buffer [100 mM potassium glutamate (pH 7.8)], and working solution was dispensed into two columns of round-bottom 96-well plate (330 μL per well). […] Plate was placed in plate-reader (SpectraMax 190, Molecular Devices) under temperature control (25° C.), and temperature was allowed to equilibrate. […] After shaking for 5 s, reaction progress was monitored by absorbance at 340 nm every 15 s for 90 min. Linear portion of reaction progress curve was fit using plate-reader software (SoftMax Pro 7.0). Percent activity was calculated relative to DMSO-only and no-enzyme controls in each plate. […]

H. sapiens HFF-1 = test: In-vitro cytotoxicity; format: cell-based
Plasma protein binding [4] = conditions: mouse, plasma
[5] = female, C57BL/6, mouse, in vivo

Sequence of E. coli FabI (P0AEK4 whole entry): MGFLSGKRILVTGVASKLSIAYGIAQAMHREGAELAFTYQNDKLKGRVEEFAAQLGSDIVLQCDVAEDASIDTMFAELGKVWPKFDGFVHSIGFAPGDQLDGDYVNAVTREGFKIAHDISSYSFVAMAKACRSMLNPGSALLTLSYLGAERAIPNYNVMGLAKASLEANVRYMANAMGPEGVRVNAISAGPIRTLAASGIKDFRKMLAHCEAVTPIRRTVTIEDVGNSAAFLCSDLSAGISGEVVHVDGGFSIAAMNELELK
Sequence of A. baumannii FabI (D0CAD5 1-288): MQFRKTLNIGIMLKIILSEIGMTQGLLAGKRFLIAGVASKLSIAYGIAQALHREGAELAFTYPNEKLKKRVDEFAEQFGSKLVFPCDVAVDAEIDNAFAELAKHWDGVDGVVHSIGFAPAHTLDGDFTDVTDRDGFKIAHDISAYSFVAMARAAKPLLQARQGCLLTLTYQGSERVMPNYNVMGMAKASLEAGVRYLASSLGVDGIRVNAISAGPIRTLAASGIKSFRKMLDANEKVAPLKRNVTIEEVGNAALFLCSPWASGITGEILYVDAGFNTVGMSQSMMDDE
Sequence of HERG (Q12809 whole entry): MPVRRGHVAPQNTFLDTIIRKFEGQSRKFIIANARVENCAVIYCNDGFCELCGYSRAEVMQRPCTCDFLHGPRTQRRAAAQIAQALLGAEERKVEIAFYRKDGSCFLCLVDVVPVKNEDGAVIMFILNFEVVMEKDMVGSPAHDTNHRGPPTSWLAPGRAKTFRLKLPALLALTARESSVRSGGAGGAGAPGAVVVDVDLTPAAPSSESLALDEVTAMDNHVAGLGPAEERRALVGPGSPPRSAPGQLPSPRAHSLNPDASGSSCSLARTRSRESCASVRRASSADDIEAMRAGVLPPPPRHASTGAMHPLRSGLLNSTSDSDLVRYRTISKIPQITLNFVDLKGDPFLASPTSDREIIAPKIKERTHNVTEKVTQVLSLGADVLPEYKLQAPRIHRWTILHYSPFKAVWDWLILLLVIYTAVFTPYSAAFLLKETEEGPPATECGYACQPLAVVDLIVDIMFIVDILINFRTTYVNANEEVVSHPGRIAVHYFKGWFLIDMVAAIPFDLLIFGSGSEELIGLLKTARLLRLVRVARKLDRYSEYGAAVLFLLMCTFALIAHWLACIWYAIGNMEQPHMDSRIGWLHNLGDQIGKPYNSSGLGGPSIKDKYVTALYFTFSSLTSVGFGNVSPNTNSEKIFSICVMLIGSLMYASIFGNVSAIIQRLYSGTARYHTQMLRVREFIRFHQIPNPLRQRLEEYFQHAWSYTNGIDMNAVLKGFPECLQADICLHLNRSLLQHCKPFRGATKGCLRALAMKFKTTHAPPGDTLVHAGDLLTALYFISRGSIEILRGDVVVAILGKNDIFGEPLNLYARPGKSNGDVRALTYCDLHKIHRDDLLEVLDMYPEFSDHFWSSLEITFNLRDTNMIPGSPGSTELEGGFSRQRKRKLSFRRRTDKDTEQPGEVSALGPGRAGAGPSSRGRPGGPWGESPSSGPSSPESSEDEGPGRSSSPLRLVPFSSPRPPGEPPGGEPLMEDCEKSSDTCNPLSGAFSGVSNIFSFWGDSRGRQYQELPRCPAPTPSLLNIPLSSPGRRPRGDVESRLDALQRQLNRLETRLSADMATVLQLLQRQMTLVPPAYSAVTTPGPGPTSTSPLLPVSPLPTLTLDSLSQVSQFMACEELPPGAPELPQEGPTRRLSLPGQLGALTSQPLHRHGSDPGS

## Cc1c(CN(C)C(=O)/C=C/c2cnc3c(c2)CC(N)C(=O)N3)oc2ccccc12.Cl (stereo not drawn) [Debio-1452-NH3, (E)-3-(6-amino-7-oxo-5,6,7,8-tetrahydro-1,8-naphthyridin-3-yl)-N-methyl-N-((3-methylbenzofuran-2-yl)methyl)acrylamide, reference compound]
K. pneumoniae BAA 2472; Klebsiella pneumoniae, BAA2472, read-out: MIC K. pneumoniae BAA 2472, clinical isolate
  MIC: 16 µg/mL
E. coli ΔtolC (JW5503)
  MIC E. coli ΔtolC: 0.062 µg/mL
E. coli MG1655; Escherichia coli, MG1655
  MIC: 4 µg/mL
S. aureus ATCC 29213; Staphylococcus aureus, ATCC29213, read-out: MIC S. aureus 29213
  MIC: 0.031 µg/mL
IMR90; 30 μM
  IMR90 % Cell Death: 18 ± 4%
IMR90; 100 μM
  IMR90 % Cell Death: 69 ± 5%
Hep G2; 30 μM
  Hep G2 % Cell Death: 29 ± 8%
Hep G2; 100 μM
  Hep G2 % Cell Death: 77 ± 3%
K. pneumoniae AR 0066; Klebsiella pneumoniae, AR0066, read-out: MIC K. pneumoniae AR 0066, clinical isolate
  MIC: 32 µg/mL
E. coli AR 0048; Escherichia coli, AR0048, read-out: MIC E. coli AR 0048, clinical isolate
  MIC: 32 µg/mL
A. baumannii AR 0273; Acinetobacter baumannii, AR0273, read-out: MIC A. baumannii AR 0273, clinical isolate
  MIC: 32 µg/mL
A. baumannii AR 0033; Acinetobacter baumannii, AR0033, read-out: MIC A. baumannii AR 0033, clinical isolate
  MIC: 32 µg/mL
E. coli AR 0085; Escherichia coli, AR0085, read-out: MIC E. coli AR 0085, clinical isolate
  MIC: 16 µg/mL
K. pneumoniae AR 0113; Klebsiella pneumoniae, AR0113, read-out: MIC K. pneumoniae AR 0113, clinical isolate
  MIC: 32 µg/mL
A. baumannii AR 0313; Acinetobacter baumannii, AR0313, read-out: MIC A. baumannii AR 0313, clinical isolate
  MIC: 32 µg/mL
K. pneumoniae AR 0560; Klebsiella pneumoniae, AR0560, read-out: MIC K. pneumoniae AR 0560, clinical isolate
  MIC: 32 µg/mL
A. baumannii AR 0299; Acinetobacter baumannii, AR0299, read-out: MIC A. baumannii AR 0299, clinical isolate
  MIC: 32 µg/mL
[1]; daily IP, 5 consecutive days, female C57BL/6 mice
  well tolerated daily dosing for 5 consecutive days: 50 mg/kg
[1]; [5]
  MTD at 2 weeks: 50 mg/kg
  MTD at 5 d: 50 mg/kg
[1]; female, C57BL/6, mouse, in vivo, 5 d
  Multi-day single-dose MTD: 50 mg/kg, 5 d
[1]; female, C57BL/6, mouse, in vivo, ip
  MTD at 2 weeks: 50 mg/kg

## Cc1c(CN(C)C(=O)/C=C/c2cnc3c(c2)CCC(N)C(=O)N3)oc2ccccc12 (racemic) [(±)-11]
K. pneumoniae BAA 2472; clinical isolate
  MIC K. pneumoniae BAA 2472: 8 µg/mL (≈ 19.8 µM)
E. coli ΔtolC (JW5503)
  MIC E. coli ΔtolC: 0.031 µg/mL (≈ 0.0766 µM)
E. coli MG1655; E. coli MG1655
  MIC E. coli MG1655: 4 µg/mL (≈ 9.89 µM)
S. aureus ATCC 29213
  MIC S. aureus 29213: 0.016 µg/mL (≈ 0.0396 µM)
[2]
  concentration at which all strains of the clinical isolate challenge panel are inhibited: ≤ 8 µg/mL
K. pneumoniae AR 0066; clinical isolate
  MIC K. pneumoniae AR 0066: 8 µg/mL (≈ 19.8 µM)
E. coli AR 0048; clinical isolate
  MIC E. coli AR 0048: 4 µg/mL (≈ 9.89 µM)
A. baumannii AR 0273; clinical isolate
  MIC A. baumannii AR 0273: 8 µg/mL (≈ 19.8 µM)
A. baumannii AR 0033; clinical isolate
  MIC A. baumannii AR 0033: 4 µg/mL (≈ 9.89 µM)
E. coli AR 0085; clinical isolate
  MIC E. coli AR 0085: 4 µg/mL (≈ 9.89 µM)
K. pneumoniae AR 0113; clinical isolate
  MIC K. pneumoniae AR 0113: 8 µg/mL (≈ 19.8 µM)
A. baumannii AR 0313; clinical isolate
  MIC A. baumannii AR 0313: 8 µg/mL (≈ 19.8 µM)
K. pneumoniae AR 0560; clinical isolate
  MIC K. pneumoniae AR 0560: 8 µg/mL (≈ 19.8 µM)
A. baumannii AR 0299; clinical isolate
  MIC A. baumannii AR 0299: 4 µg/mL (≈ 9.89 µM)

## Cc1c(CN(C)C(=O)/C=C/c2cnc3c(c2)CC(N)C(=O)N3)oc2ccccc12 (racemic) [Debio-1452-NH3, (E)-3-(6-amino-7-oxo-5,6,7,8-tetrahydro-1,8-naphthyridin-3-yl)-N-methyl-N-((3-methylbenzofuran-2-yl)methyl)acrylamide]
HERG
  IC50: 5.7 µM
H. sapiens A549
  inhibition at 30 µM: 29 ± 4%
H. sapiens A549; cytotoxicity
  IC50: 68 ± 4 µM
A. baumannii FabI
  Ki: 0.114 µM
Plasma protein binding [3]
  fraction unbound: 0.107
E. coli FabI
  Ki: 0.0035 ± 0.0005 µM
H. sapiens HFF-1
  inhibition at 30 µM: 11 ± 2%
H. sapiens HFF-1; cytotoxicity
  IC50: 63 ± 33 µM
Plasma protein binding [4]
  fraction unbound: 0.055

From patent US20240190872A1, “FABI INHIBITORS FOR GRAM-NEGATIVE PATHOGENS” (THE BOARD OF TRUSTEES OF THE UNIVERSITY OF ILLINOIS, priority 2021, published 2024)
